Key:
[1] = 100 kPa, Liquid; for speed of sound: Frequency=3 MHz, Sing-around technique in a fixed-path interferometer; for mass density: Vibrating tube method
[2] = xn = mol fraction of the nth substance listed; details: 100 kPa, Liquid; for speed of sound: Frequency=3 MHz, Sing-around technique in a fixed-path interferometer; for mass density: Vibrating tube method

CCCCn1cc[n+](C)c1.F[B-](F)(F)F [1-butyl-3-methylimidazolium tetrafluoroborate]
[1], 293.15 K
Details | mass density [kg/m3] | speed of sound [m/s]
– | 1203.63 | 1577.5

Nc1ccccc1 [aniline] + CCCCn1cc[n+](C)c1.F[B-](F)(F)F
[2]
Details | mass density, 293.15 K [kg/m3] | mass density, 303.15 K [kg/m3] | mass density, 313.15 K [kg/m3] | mass density, 323.15 K [kg/m3] | speed of sound, 293.15 K [m/s] | speed of sound, 303.15 K [m/s] | speed of sound, 313.15 K [m/s] | speed of sound, 323.15 K [m/s]
x2 = 0 | 1021.69 | 1013.04 | 1004.36 | 995.66 | 1656.8 | 1618.3 | 1580 | 1541.9
x2 = 0.1001 | 1058.27 | 1050.3 | 1042.33 | 1034.33 | 1661 | 1626.5 | 1592 | 1557.7
x2 = 0.2028 | – | – | – | 1068.14 | – | – | – | 1569.8
x2 = 0.4991 | 1150.32 | 1143.1 | 1135.81 | 1128.64 | 1624.8 | 1598.3 | 1571.9 | 1546.1
x2 = 0.6032 | 1163.88 | 1156.61 | 1149.6 | 1142.78 | 1610.6 | 1584.8 | 1559.4 | 1534.7
x2 = 0.7021 | 1175.38 | 1168.21 | 1161.22 | 1154.4 | 1599.8 | 1574.8 | 1549.2 | 1525.1
x2 = 0.7907 | 1184.36 | 1177.25 | 1170.51 | 1163.73 | 1592.7 | 1568.5 | 1540.8 | 1518.5
x2 = 0.9026 | 1194.78 | 1187.71 | 1180.84 | 1173.92 | 1584.1 | 1559.7 | 1535.8 | 1512.4

CCCCn1cc[n+](C)c1.F[B-](F)(F)F [1-butyl-3-methylimidazolium tetrafluoroborate] + Nc1ccccc1
[2], x1 = 1
Details | mass density [kg/m3] | speed of sound [m/s]
293.15 K | 1203.63 | 1577.5
303.15 K | 1195.18 | 1553.2
313.15 K | 1188.04 | 1529.7
323.15 K | 1180.98 | 1506.8

Nc1ccccc1 [aniline]
[1]
Details | mass density [kg/m3] | speed of sound [m/s]
293.15 K | 1021.69 | 1656.8
303.15 K | 1013.04 | 1618.3
313.15 K | 1004.36 | 1580
323.15 K | 995.66 | 1541.9

From the NIST ThermoML archive (doi:10.1016/j.jct.2016.04.024)
